Oligonucleotides are written 5' to 3', each unit as a sugar letter and its base; * is a phosphorothioate linkage, no mark a phosphodiester; rarer units and linkages stand in square brackets, end groups in braces. Plain capitals give the bases only. m = 2'-O-methyl; {P} = phosphate; f = 2'-fluoro
Test system: C3 mRNA
Assay: Dose response experiments (DRC) of modification variants, C3 mRNA knockdown in HepG2 cells
Assay type: cell-based, human
Settings: for IC50 / IC80: 10 concentrations from 100 nM in 6-fold dilution steps; for Max KD: DRC experiments
Experimental: HepG2 cells were obtained from ATCC (ATCC in partnership with LGC Standards, Wesel, Germany, cat. #ATCC-HB-8065) and cultured in MEM Eagle (#M2279, Sigma-Aldrich, Germany), supplemented to contain 10% fetal calf serum (#1248D, Biochrom GmbH, Berlin, Germany), 1× non-essential amino acids (#K0293; Biochrom, Berlin, Germany), 4 mM L-Glutamine (#K0283, Biochrom, Berlin, Germany) and 100 U/ml Penicillin/100 μg/ml Streptomycin (#A2213, Biochrom GmbH, Berlin, Germany) at 37° C. in an atmosphere with 5% CO2 in a humidified incubator.
siRNAs were designed and synthesized based on the nucleotide sequence of the top siRNAs in terms of activity from Examples 1 and 2 (siRNA ID: 1, 4, 9, 10, 16, and 22) with different modification patterns. 5 “variants” were designed and synthesized for each of the top siRNA nucleotide sequences, and each duplex is identified as “variant1”, “variant2”, “variant3”, variant4”, “variant5” depending on which modifications were made. siRNAs from Examples 1 and 2 (siRNA ID: 1, 4, 9, 10, 16, and 22) are identified as “variant0”.
Transfection of siRNA was carried out with Lipofectamine RNAiMax (Invitrogen/Life Technologies, Karlsruhe, Germany) according to manufacturer's instructions for reverse transfection.
Each siRNA was tested using dose response experiments (DRC) in HepG2 cells. Two additional siRNAs (siRNA ID 26 and 27), known to knockdown C3 expression, were used as positive controls.
Dose-response experiments were done with siRNA in 10 concentrations transfected in quadruplicates, starting at 100 nM in 6-fold dilutions steps down to ˜10 fM. Mock transfected cells served as negative controls.
For each well, the target mRNA level was normalized to the respective GAPDH mRNA level. The activity of a given siRNA was expressed as percent mRNA concentration of the respective target (normalized to GAPDH mRNA) in treated cells, relative to the target mRNA concentration (normalized to GAPDH mRNA) averaged across mock transfected wells (DRCs).

| Substance | IC50 [nM] | IC80 [nM] | Max KD [%] | C3 knockdown, comparison among modification variants of the same nucleotide sequence |
| --- | --- | --- | --- | --- |
| 26 (sense CAACUCACCUGUAAUAAAUUU; antisense AUUUAUUACAGGUGAGUUGUU; siRNA; sense: all phosphodiester, sugars by position not given here; antisense: all phosphodiester, 5' {P}, sugars by position not given here) [compound 26] | 0.006 | 0.062 | 86 | – |
| 27 (sense GAGCCGUUCUCUACAAUUAUU; antisense UAAUUGUAGAGAACGGCUCUU; siRNA; sense: all phosphodiester, sugars by position not given here; antisense: all phosphodiester, 5' {P}, sugars by position not given here) [compound 27] | 0.004 | 0.027 | 89 | – |
| 28 (sense mU*mC*fAmAmCmUfCfAfCmCmUfGmUmAmAmUfAmAmA; antisense mU*fU*mUmAmUmUmAmCmAmGmGmUmGfAmGmUmUmGmA*mU*mC; siRNA) [compound 28] | 0.001 | 0.711 | 95 | – |
| 29 (sense fU*mC*fAmAfCmUfCmAfCmCfUmGfUmAfAmUfAmAfA; antisense mU*fU*mUfAmUfUmAfCmAfGmGfUmGfAmGfUmUfGmA*mU*mC; siRNA) [compound 29] | 0.979 | – | 68 | – |
| 30 (sense fU*mC*fAmAfCmUfCmAfCmCfUmGfUmAfAmUfAmAfA; antisense mU*fU*mUmAmUmUmAmCmAmGmGmUmGfAmGmUmUmGmA*mU*mC; siRNA) [compound 30] | – | – | 36 | – |
| 31 (sense fU*mC*fAmAfCmUfCmAfCmCfUmGfUmAfAmUfAmAfA; antisense mU*fU*mUmAmUfUmAmCmAmGmGmUmGfAmGfUmUmGmA*mU*mC; siRNA) [compound 31] | 0.343 | 7.64 | 81 | – |
| 32 (sense mU*mC*fAmAmCmUfCfAfCmCmUfGmUmAmAmUfAmAmA; antisense mU*fU*mUmAmUfUmAmCmAmGmGmUmGfAmGfUmUmGmA*mU*mC; siRNA) [compound 32] | 0.018 | 0.108 | 93 | most effective in C3 knockdown |
| 33 (sense mU*mC*fCmAmAmGfCfCfUmUmGfGmCmUmCmAfAmUmA; antisense mU*fA*mUmUmGmAmGmCmCmAmAmGmGfCmUmUmGmGmA*mA*mC; siRNA) [compound 33] | 0.075 | 0.601 | 91 | – |
| 34 (sense fU*mC*fCmAfAmGfCmCfUmUfGmGfCmUfCmAfAmUfA; antisense mU*fA*mUfUmGfAmGfCmCfAmAfGmGfCmUfUmGfGmA*mA*mC; siRNA) [compound 34] | 0.324 | 1.64 | 86 | – |
| 35 (sense fU*mC*fCmAfAmGfCmCfUmUfGmGfCmUfCmAfAmUfA; antisense mU*fA*mUmUmGmAmGmCmCmAmAmGmGfCmUmUmGmGmA*mA*mC; siRNA) [compound 35] | 0.622 | – | 55 | – |
| 36 (sense fU*mC*fCmAfAmGfCmCfUmUfGmGfCmUfCmAfAmUfA; antisense mU*fA*mUmUmGfAmGmCmCmAmAmGmGfCmUfUmGmGmA*mA*mC; siRNA) [compound 36] | 0.486 | – | 68 | – |
| 37 (sense mU*mC*fCmAmAmGfCfCfUmUmGfGmCmUmCmAfAmUmA; antisense mU*fA*mUmUmGfAmGmCmCmAmAmGmGfCmUfUmGmGmA*mA*mC; siRNA) [compound 37] | 0.168 | 1.38 | 86 | – |
| 38 (sense mA*mU*fCmGmGmAfUfCfUmUmCfAmCmCmGmUfCmAmA; antisense mU*fU*mGmAmCmGmGmUmGmAmAmGmAfUmCmCmGmAmU*mA*mG; siRNA) [compound 38] | 0.151 | 0.728 | 91 | – |
| 39 (sense fA*mU*fCmGfGmAfUmCfUmUfCmAfCmCfGmUfCmAfA; antisense mU*fU*mGfAmCfGmGfUmGfAmAfGmAfUmCfCmGfAmU*mA*mG; siRNA) [compound 39] | 0.326 | 1.66 | 86 | – |
| 40 (sense fA*mU*fCmGfGmAfUmCfUmUfCmAfCmCfGmUfCmAfA; antisense mU*fU*mGmAmCmGmGmUmGmAmAmGmAfUmCmCmGmAmU*mA*mG; siRNA) [compound 40] | 0.468 | 2.44 | 87 | – |
| 41 (sense fA*mU*fCmGfGmAfUmCfUmUfCmAfCmCfGmUfCmAfA; antisense mU*fU*mGmAmCfGmGmUmGmAmAmGmAfUmCfCmGmAmU*mA*mG; siRNA) [compound 41] | 1.4 | 11.1 | 84 | – |

| Substance | IC50 [nM] | IC80 [nM] | Max KD [%] | C3 knockdown, comparison among modification variants of the same nucleotide sequence |
| --- | --- | --- | --- | --- |
| 42 (sense mA*mU*fCmGmGmAfUfCfUmUmCfAmCmCmGmUfCmAmA; antisense mU*fU*mGmAmCfGmGmUmGmAmAmGmAfUmCfCmGmAmU*mA*mG; siRNA) [compound 42] | 0.5 | 2.91 | 84 | – |
| 43 (sense mU*mC*fAmAmCmUfUfCfCmUmCfCmUmGmCmGfAmAmA; antisense mU*fU*mUmCmGmCmAmGmGmAmGmGmAfAmGmUmUmGmA*mC*mG; siRNA) [compound 43] | 0.096 | 3.22 | 82 | – |
| 44 (sense fU*mC*fAmAfCmUfUmCfCmUfCmCfUmGfCmGfAmAfA; antisense mU*fU*mUfCmGfCmAfGmGfAmGfGmAfAmGfUmUfGmA*mC*mG; siRNA) [compound 44] | 0.386 | – | 76 | – |
| 45 (sense fU*mC*fAmAfCmUfUmCfCmUfCmCfUmGfCmGfAmAfA; antisense mU*fU*mUmCmGmCmAmGmGmAmGmGmAfAmGmUmUmGmA*mC*mG; siRNA) [compound 45] | 0.905 | – | 50 | – |
| 46 (sense fU*mC*fAmAfCmUfUmCfCmUfCmCfUmGfCmGfAmAfA; antisense mU*fU*mUmCmGfCmAmGmGmAmGmGmAfAmGfUmUmGmA*mC*mG; siRNA) [compound 46] | 0.54 | – | 63 | – |
| 47 (sense UCAACUUCCUCCUGCGAAA; antisense UUUCGCAGGAGGAAGUUGACG; 2'-F, 2'-OMe, phosphorothioate modifications, chemistry not fully specified) [compound 47] | 0.055 | 0.708 | 83 | – |
| 48 (sense mC*mA*fAmUmGmAfCfUfUmUmGfAmCmGmAmGfUmAmA; antisense mU*fU*mAmCmUmCmGmUmCmAmAmAmGfUmCmAmUmUmG*mG*mA; siRNA) [compound 48] | 0.119 | 8.35 | 82 | – |
| 49 (sense fC*mA*fAmUfGmAfCmUfUmUfGmAfCmGfAmGfUmAfA; antisense mU*fU*mAfCmUfCmGfUmCfAmAfAmGfUmCfAmUfUmG*mG*mA; siRNA) [compound 49] | – | – | 28 | – |
| 50 (sense fC*mA*fAmUfGmAfCmUfUmUfGmAfCmGfAmGfUmAfA; antisense mU*fU*mAmCmUmCmGmUmCmAmAmAmGfUmCmAmUmUmG*mG*mA; siRNA) [compound 50] | – | – | 16 | – |
| 51 (sense fC*mA*fAmUfGmAfCmUfUmUfGmAfCmGfAmGfUmAfA; antisense mU*fU*mAmCmUfCmGmUmCmAmAmAmGfUmCfAmUmUmG*mG*mA; siRNA) [compound 51] | – | – | 32 | – |
| 52 (sense mC*mA*fAmUmGmAfCfUfUmUmGfAmCmGmAmGfUmAmA; antisense mU*fU*mAmCmUfCmGmUmCmAmAmAmGfUmCfAmUmUmG*mG*mA; siRNA) [compound 52] | 0.058 | 1.89 | 85 | – |
| 53 (sense mC*mC*fAmAmCmUfAfCfAmUmGfAmAmCmCmUfAmCmA; antisense mU*fG*mUmAmGmGmUmUmCmAmUmGmUfAmGmUmUmGmG*mC*mU; siRNA) [compound 53] | 0.056 | 0.51 | 91 | – |
| 54 (sense fC*mC*fAmAfCmUfAmCfAmUfGmAfAmCfCmUfAmCfA; antisense mU*fG*mUfAmGfGmUfUmCfAmUfGmUfAmGfUmUfGmG*mC*mU; siRNA) [compound 54] | 0.29 | 1.52 | 89 | – |
| 55 (sense fC*mC*fAmAfCmUfAmCfAmUfGmAfAmCfCmUfAmCfA; antisense mU*fG*mUmAmGmGmUmUmCmAmUmGmUfAmGmUmUmGmG*mC*mU; siRNA) [compound 55] | 0.265 | 1.74 | 89 | – |
| 56 (sense fC*mC*fAmAfCmUfAmCfAmUfGmAfAmCfCmUfAmCfA; antisense mU*fG*mUmAmGfGmUmUmCmAmUmGmUfAmGfUmUmGmG*mC*mU; siRNA) [compound 56] | 0.228 | 1.2 | 91 | – |
| 57 (sense mC*mC*fAmAmCmUfAfCfAmUmGfAmAmCmCmUfAmCmA; antisense mU*fG*mUmAmGfGmUmUmCmAmUmGmUfAmGfUmUmGmG*mC*mU; siRNA) [compound 57] | 0.029 | 1.38 | 91 | – |

Reference: patent US20230095695A1, “RNAS FOR COMPLEMENT INHIBITION” (Apellis Pharmaceuticals, Inc., priority 2020, published 2023)
